Test results as given in PubChem BioAssay (NCI).
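Five concentrations, 48 hours, 96-well plates. The concentration for full growth arrest is given as TGI.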

Columns and labels:
Experiment in all cases: inhibition of tumour cell growth, NCI panel, 48 h
[1] = system: SN12C renal
[2] = system: PC-3 prostate
[3] = system: HCC-2998 colon
[4] = system: SF-295 CNS
[5] = system: OVCAR-8 ovarian
[6] = system: T-47D breast
[7] = system: SNB-75 CNS
[8] = system: MDA-MB-435
[9] = system: SK-MEL-28 melanoma
[10] = system: RPMI-8226 leukemia
[11] = system: HOP-92 NSCLC
[12] = system: MDA-MB-231 breast
[13] = system: SF-268 CNS
[14] = system: CCRF-CEM leukemia
[15] = system: BT-549 breast
[16] = system: OVCAR-5 ovarian
[17] = system: LOX IMVI melanoma
[18] = system: SK-MEL-2 melanoma
[19] = system: OVCAR-3 ovarian
[20] = system: A549 NSCLC
[21] = system: UO-31 renal
[22] = system: SNB-19 CNS
[23] = system: NCI-H460 lung
[24] = system: MOLT-4 leukemia
[25] = system: 786-0 renal
[26] = system: HL-60(TB) leukemia
[27] = system: MCF7 breast
[28] = system: SF-539 CNS
[29] = system: NCI/ADR-RES ovarian
[30] = system: CAKI-1 renal
[31] = system: SR leukemia
[32] = system: NCI-H522 lung
[33] = system: OVCAR-4 ovarian
[34] = system: SW-620 colon
[35] = system: HOP-62 NSCLC
[36] = system: U251 CNS
[37] = system: SK-MEL-5 melanoma
[38] = system: IGROV1 ovarian
[39] = system: HS 578T breast
[40] = system: TK-10 renal
[41] = system: NCI-H23 lung
[42] = system: UACC-257 melanoma
[43] = system: UACC-62 melanoma
[44] = system: MDA-N
[45] = system: COLO 205 colon
[46] = system: ACHN renal
[47] = system: M14 melanoma
[48] = system: HT29 colon
[49] = system: DU-145 prostate
[50] = system: KM12 colon
[51] = system: HCT-15 colon
[52] = system: HCT-116 colon
[53] = system: EKVX NSCLC

Measured: TGI

COC(=O)c1cc(NC2OCC(OC(C)=O)C(OC(C)=O)C2OC(C)=O)nc(SC)c1C(=O)OC (stereo not drawn)
> 100 µM: [1] | [2] | [3] | [4] | [5] | [6] | [7] | [8] | [9] | [10] | [11] | [12] | [13] | [14] | [15] | [16] | [17] | [18] | [19] | [20] | [21] | [22] | [23] | [24] | [25] | [26] | [27] | [28] | [29] | [30] | [31] | [32] | [33] | [34] | [35] | [36] | [37] | [38] | [39] | [40] | [41] | [42] | [43] | [44] | [45] | [46] | [47] | [48] | [49] | [50] | [51] | [52] | [53]
